Source: patent EP4582413A1, “ARYLTETRAHYDROPYRIDINE COMPOUND AND PEST CONTROL AGENT” (priority 2022, dated 2024)

Assays:
Assay type in all cases: in vivo
[1] = tested on: kennel ticks (Rhipicephalus sanguineus); assay: Effect test for kennel ticks; settings: 10 µg/cm^2 thin film in glass container, protonymphs, two days, 25°C; for mortality at 10 µg/cm2: Rhipicephalus sanguineus, 48 h, read-out: death rate
Description: In 1 ml of acetone, 1 mg of the presently invented compound was dissolved to prepare a chemical solution having a concentration of 1000 ppm. The bottom surface and side surface of each glass container having an inner wall surface area of 25 cm^2 were coated with 250 µl of the chemical solution, and acetone was then volatilized to form a thin film of the compound on the inner wall of the glass container.
Into each of the treated glass containers, five kennel ticks (Rhipicephalus sanguineus) protonymphs (mixed-sex) were released, and the glass containers were capped and accommodated in a thermostatic room at 25°C.

[2] = tested on: cat fleas (Ctenocephalides felis); assay: whole plant or invertebrate; settings: 72 h, read-out: death rate
Method in brief: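 Glass containers (25 cm² inner surface) were coated with 250 µl of a 1000 ppm acetone solution, and the acetone was evaporated to leave a dry film. Five mixed-sex adult fleas were confined per container at 25°C. Mortality was scored after 3 days.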

[3] = tested on: green peach aphids (Myzus persicae); assay: Insecticidal test for green peach aphids; settings: Myzus persicae, foliar, 144 h; 500 ppm chemical solution sprinkled (2.5 mg/cm^2), wingless imagoes on leaf disc, six days, 25°C; read-out: death rate
Method in brief: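 Four wingless Myzus persicae adults on a 3 cm Chinese olive leaf disc over wet cotton, sprayed one day later with a 500 ppm dilution of a 10% emulsion plus spreader (2.5 mg/cm^2, rotary tower). Dishes were capped and held at 25°C. Run in duplicate.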

[4] = tested on: diamondback moths (Plutella xylostella); assay: Insecticidal test for diamondback moths; settings: Plutella xylostella, 144 h; 500 ppm chemical solution, leaves soaked, third-instar larvae, six days, 25°C; read-out: death rate
Method in brief: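 Leaves dipped about 10 s in a 500 ppm aqueous dilution of an emulsion formulation with spreader, then air-dried. Five third-instar larvae released per dish and held at 25 °C. Tested in duplicate.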

[5] = tested on: brown rice planthoppers (Nilaparvata lugens); assay: Insecticidal test for brown rice planthoppers; settings: Nilaparvata lugens, 144 h; 500 ppm chemical solution, rice leaf sheaths soaked, third-instar larvae, six days, 25°C; read-out: death rate
Method in brief: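 Rice leaf sheaths dipped ~10 s in 500 ppm compound solution (emulsion diluted in water with spreader), air-dried, then infested with five third-instar larvae per tube at 25 °C. Mortality scored after 6 days, death rate calculated, in duplicate.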

[6] = tested on: western flower thrips (Frankliniella occidentalis); assay: Insecticidal activity against western flower thrips; settings: Frankliniella occidentalis, 48 h; 500 ppm chemical solution sprinkled (2.5 mg/cm^2), larvae on common bean leaf, after 2 days; read-out: death rate
Method in brief: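 Bean leaf squares on wet filter paper inoculated with 20 larvae. Compound emulsion diluted with spreader-containing water to 500 ppm and sprayed at 2.5 mg/cm^2 by rotary tower. Run in duplicate.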

| Compound | mortality at 10 µg/cm2 [1] | mortality at 10 µg/cm2 [2] | mortality at 500 µg/mL [3] | mortality at 500 µg/mL [4] | mortality at 500 µg/mL [5] | death rate [1] | mortality at 500 µg/mL [6] |
| --- | --- | --- | --- | --- | --- | --- | --- |
| O=C(Nc1ccc(F)cc1)C1=C(O)CC(c2ccc(C(F)(F)F)c(-c3cccc(F)c3)c2)NC1=O (stereo not drawn) [1-006] | ≥ 50% | ≥ 50% | ≥ 90% | ≥ 90% | – | – | – |
| O=C(Nc1c(F)cccc1F)C1=C(O)CC(c2nc(-c3ccncc3F)no2)NC1=O (stereo not drawn) [3-166] | ≥ 50% | ≥ 50% | ≥ 90% | ≥ 90% | ≥ 90% | – | – |
| O=C(Nc1ccc(F)cn1)C1=C(O)CC(c2nc(-c3ccc(O)nc3)no2)NC1=O (stereo not drawn) [3-101] | – | – | – | – | – | ≥ 50% | – |
| O=C(Nc1ccc(F)cc1)C1=C(O)CC(c2ccc(C(F)(F)F)c(-c3ccc(F)cc3)c2)NC1=O (stereo not drawn) [1-007] | ≥ 50% | ≥ 50% | ≥ 90% | ≥ 90% | – | – | ≥ 90% |
| O=C(Nc1ccccn1)C1=C(O)CC(c2nc(-c3ccccc3F)no2)NC1=O (stereo not drawn) [3-186] | ≥ 50% | ≥ 50% | – | ≥ 90% | ≥ 90% | – | ≥ 90% |
| O=C(Nc1nccs1)C1=C(O)CC(c2cnc(C(F)(F)F)c(-c3ccc(F)nc3)c2)NC1=O (stereo not drawn) [2-184] | – | ≥ 50% | ≥ 90% | ≥ 90% | ≥ 90% | – | ≥ 90% |
| O=C(Nc1cc(F)ccn1)C1=C(O)CC(c2nc(-c3c(F)cc(F)cc3F)no2)NC1=O (stereo not drawn) [3-144] | – | ≥ 50% | ≥ 90% | ≥ 90% | ≥ 90% | – | ≥ 90% |
